“Also recorded” adds a separate entry of the source.
Assays:
[1] = tested on: proteasome (chymotrypsin activity); experiment: Proteasome activity, hydrolysis of Suc-LLVY-AMC in CHO-AA8/Tet-Off cells; type: cell-based; conditions: 24 h
Method: The concentration-dependent effect of khayanthone, 17-AAG, Gedunin, and Lactacystin on proteasome activity was tested using a non-recombinant CHO Tet-Off cell line. Cells were incubated with the given compounds for 24 h. Subsequently, proteasome activities were measured by a fluoroscan according to the degradation rate of a fluorogenic substrate (Suc-LLVY-AMC). In correlation to DMSO treated controls khayanthone led to an increase of proteasome activity about 40-50% in CHO-AA8/Tet-Off cells.
To confirm this we examined the chymotrypsin activity of the proteasome under the influence of khayanthone and compared data with known substances influencing the proteasomes' activity (gedunin, lactacystin, 17-AAG) (FIG. 4). Adminstration of the selected substances was performed for 24 h, and subsequently chymotrypsin activity of the UPS was determined by measuring the hydrolysis of a fluorogenic reporter (Suc-LLVY-AMC, Biomol).

[2] = tested on: HSP70; experiment: Western blot of heat shock protein expression in SH-SY5Y cells; type: cell-based; conditions: SH-SY5Y cell line, increasing concentration
Method: (§1) Utilizing Western-blot analysis concentration-dependent effects of khayanthone on protein expression of HSP40, HSP70, and HSP90 were detected. Immuno detection was performed using HSP specific monoclonal antibodies, respectively.
(§2) We examined effects of khayanthone on the expression of heat shock proteins, preferentially HSP40, HSP70 and HSP90, because of their impacts in neurodegenerative disease and cancer. Heat shock protein expression was determined in neuronal cells (SH-SY5Y cell line) by western blot analysis.

[3] = tested on: HSP90; experiment: as above; type: cell-based; conditions: SH-SY5Y cell line, increasing concentration
Method: as §1, §2

[4] = tested on: HSP40; experiment: as above; type: cell-based; conditions: SH-SY5Y cell line, increasing concentration
Method: as §1, §2

[5] = tested on: CHO-AA8/Q68-Q68 cells; experiment: Propidium iodide exclusion assay (viability, cell number) following the FRET assay
Method: CHO-AA8/Q68-Q68, CHO-AA8/Q17-Q17 and CHO-AA8 cells were seeded in 96 well plates. After attachment of the cells, the medium was exchanged for Ham's F 12 medium containing 10% doxicycline free FBS and 2% DMSO supplemented with compounds. After 48 h the fluorescence intensities of cells were measured using a fluorescence plate reader (Fluoroscan Ascent, Thermo Scietific) and filtersets for CFP (ex 444 nm, em 485 nm), YFP(ex 485 nm, em 538 nm) and FRET (ex 444 nm, em 538 nm). After correction of background fluorescence (subtraction of CHO-AA8 cell fluorescence intensities) the FRET signal was determined using the method: FA=(FRET-a*YFP)/CFP with a=0.11 (Zal u. Gascoigne 2004, Zal et al. 2002). In following, the viability of cells was measured using a propidium iodide exclusion assay (Sattler et al. 1997). PI was added to the cells at final concentration of 0.15 mg/ml. After 15 minutes the PI fluorescence intensity was measured (ex 530 nm, em 620 nm). The cells were then lysed with 0.5% Triton X-100 (TX100) and the PI fluorescence intensity was measured again. Viability of cells was calculated as viability=1−(PIbefore TX100/PIafter TX100).
(§3) The FRET-measurement was performed 48 h later.

[6] = molecular target: T1, mutant huntingtin aggregates (HDex1Q68 fused to ECFP/EYFP) (Homo sapiens, UniProt P42858, INS38QQQQQQQQQQQQQQQQQQQQQQQQQQQQQQQQQQQQQQQQQQQQQQQ); experiment: Cellular FRET aggregation assay in stable Tet-off CHO-AA8/Q68-Q68 cells; type: cell-based; conditions: 48 h, 2% DMSO
Method: To determine the potential of possibly inhibiting substances the inventors performed dose response assays at concentrations ranging from 1, to 100 μM.
Screening was performed in 96-well plates (greiner bio-one) containing 1×10^4 cells/well of the stably inducible tet off cell lines htt-mut (six-fold) and CHO-AA8 line (three fold) for background control. Simultaneously, each compound was checked for its potential autofluorescence.
Two stable inducible CHO Tet off cell lines were constructed expressing simultaneously wildtype (CHO-AA8/Q17-Q17) or mutant (CHO-AA8/Q68-Q68) huntingtin fragments fused to ECFP or EYFP (FIG. 1B) after withdrawal of doxicycline (dox). Basal and induced expression levels of huntingtin fusion proteins were examined by Western blot analysis at different time intervals (4, 24, 48, and 72 hours). […] For the screening approach stable inducible huntingtin expressing cell lines were seeded in 96-well plates and the fluorescence intensities were measured with a fluorescence plate reader.
The test compounds were mixed in a fresh doxicycline-free medium with 2% DMSO and added to the Tet off cell lines two to three hours after seeding and attachment of the cells.
as §3
Subsequently, a second screening round was performed at concentration range 1, 3, and 10 μM, respectively.

[7] = molecular target: T1, mutant huntingtin aggregates (HDex1Q68 fused to ECFP/EYFP); experiment: as above; type: cell-based
[8] = tested on: flies expressing Htt-Exon-1Q93 in all neurons; experiment: Climbing assay in a Drosophila model of HD; type: in vivo
Method: (A) Expression of the htt proteins in transgenic flies is driven by the bipartite expression system upstream activator sequence (UAS)-GAL4 (yeast transcriptional activator). Stocks w; P(w^+mC; w+; elav−GAL4/CyO) and w; P(w+mC=UAS-Q93httexon1) were crossed in order to obtain flies expressing mutant htt fragments in all neurons.
(B, C) Flies expressing Htt-Exon-1Q93 were fed with khayanthone (100 μM, 250 μM) or DMSO supplemented food. Effects of khayanthone on flies' motor ability were measured with the climbing assay. For this purpose flies were placed in a vial, then the height half of them were able to climb from the bottom within 60 sec was determined. In addition the time was measured which half of them needed to climb up 6 cm. […] Each curve represents a population of ˜40 flies. Error bars represent the SD of 5 repeats on each measuring point.
Flies were mated at 25° C. in vials containing standard food supplemented with different concentrations of the compound tested. Adults were transferred to vials containing fresh food supplemented with different concentrations of khayanthone (100 μM, 250 μM, and DMSO control) every 3 days after eclosion.
Effects of khayanthone on the flies' motor ability were measured with the climbing assay. For this purpose flies were placed in a vial, then the height, which half of them were able to climb from the bottom within 60 sec, was determined. In addition, the time was measured which half of them needed to climb up 6 cm. The assays were repeated five times on each population sample.

[9] = after day 18, food with 100 μM, 250 μM

T1 sequence (P42858 1-88, stated change not applied): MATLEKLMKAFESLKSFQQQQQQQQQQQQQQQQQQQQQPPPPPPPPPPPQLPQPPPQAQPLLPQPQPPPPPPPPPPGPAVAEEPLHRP

For `CC(=O)O[C@H]1C[C@@H](OC(C)=O)C(C)(C)C2C[C@@H](OC(C)=O)[C@]3(C)C(CC[C@@]4(C)[C@H]([C@H]5CCOC5)C(=O)[C@H]5O[C@]543)[C@]21C` (stereo partly shown) [S1, khayanthone], the highest chymotrypsin activity ([1]; 1 μM) was “about 40%”, the “chymotrypsin activities (decline with increasing concentrations)” value ([1]; 3, 10 μM) was about 10% and the “increase of proteasome activity” value ([1]; CHO-AA8/Tet-Off cells, in correlation to DMSO treated controls) was 40-50%. The HSP70 protein expression [2] was “decreased expression; also recorded: slight decrease”, the HSP90 protein expression [3] was “decreased expression; also recorded: slight decrease” and the HSP40 protein expression [4] was “decreased expression; also recorded: slight decrease”. For the same compound, the “Cell number (effect in words)” value [5] was “unaffected”, the “FRET-signal (effect in words)” value [6] was “decreases” and the “Number of mutant huntingtin aggregates (fluorescence microscopy images)” value [7] was “decrease with increasing compound concentration”. The “climbing distance in 60 sec (height half of the flies climb)” value [8, 9] was ~50 % of the initial distance, the “time half of the flies need for a 6 cm distance” value [8, 9] was 2.3 times of the initial time and the “difference in climbing between treated and untreated flies” value ([8]; until day 18) was “no detectable difference”. The “motor ability / mobility compared to DMSO treated flies (in words)” value ([8]; with increasing age, food with 100 μM, 250 μM) was “improves significantly motor deficits; also recorded: maintain an improved mobility”.
